These results are taken from patent US10022392B2, “Compositions based on methyl cyclodextrins for the treatment and/or prevention of diseases by increasing the HDL cholesterol level” (ROQUETTE FRERES, priority 2013, dated 2018).

In test [1] the test system is adult bovine aortic endothelial cells (ABAEs). The test can be described thus: Cholesterol efflux: 3H-cholesterol captured by the cyclodextrins from aortic endothelial cells. In kind it is cell-based. The conditions noted are these: 1 mM cyclodextrin, 2 hours, FIG. 2. The source says: (§1) Cells: The endothelial cells were adult bovine aortic endothelial cells (ABAEs).
Cyclodextrins: the cyclodextrins used were the following: a non-methylated β-cyclodextrin, hereinafter denoted “β-CD”, a methyl-β-cyclodextrin having an MS of 0.2, hereinafter denoted “MβCD-0.2”, a methyl-β-cyclodextrin having an MS of 0.67 (KLEPTOSE® CRYSMEB, ROQUETTE FRERES), hereinafter denoted “MβCD-0.67”, a methyl-β-cyclodextrin having an MS of 1.8 (RAMEB®, CYCLOLAB), hereinafter denoted “MβCD-1.8”.
0.5 μCi/ml of 3H-cholesterol was incorporated into serum (10% horse serum/calf serum (HS/CS)) for 6 hours at 37° C. for the purpose of obtaining a culture medium enriched with radioactive cholesterol. After this incorporation, the culture medium was finalized by incorporation of DMEM (Dulbecco's Modified Eagle's medium) supplemented with 10% HS, 10% CS, 1 ng/ml bFGF (basic fibroblast growth factor), 2 mM glutamine and 50 μg/ml gentamicin. […]
Two hours after the beginning of the incubation in the presence of each cyclodextrin, 500 μl of medium were removed and the radioactive cholesterol captured by the cyclodextrin was assayed by means of a scintillation counter (Tri-carb 2100TR). The radioactivity was measured in disintegrations per minute (DPM). The capacity of each cyclodextrin to capture cellular cholesterol was then estimated by performing the following calculation: ((1.4 ml/0.5 ml)×DPM measured). […]

Another test concerns ABCG1. In words: Expression of the ABCG1 transporter (real-time PCR) in endothelial cells treated with cyclodextrins. In kind it is cell-based, bovine. The settings on record: 1 mM cyclodextrin, 24 hours, ABAEs, compared with control, FIG. 4. On the procedure:
as §1
(§2) The cells were then cultured in this radioactive medium for 36 hours in order to allow them to incorporate the radioactive cholesterol. The medium was then removed and the cells were rinsed twice with warm DMEM containing 0.1% of bovine serum albumin (BSA). The cells were then cultured in DMEM/1 ng/ml bFGF containing 1 mM of each cyclodextrin for 24 hours (1.4 ml/well).
(§3) After 24 hours of treatment with each cyclodextrin, the cells were rinsed twice in cold PBS (8 g/l NaCl, 0.2 g/l KCl, 0.2 g/l KH2PO4, 2.87 g/l NA2HPO4 (12H2O), pH 7.4) and lyzed using 500 μl of RLT lysis buffer […]. Three wells were used and pooled for each condition. […] At the end of this purification step, the mRNA concentration was estimated by virtue of the absorbance values obtained at 260, 280 and 320 nm. […]
(§4) The amplification was carried out over the course of 40 cycles with a hybridization temperature of 60° C. using the Biorad CFX96 thermocycler. For each pair of primers, the amplification specificity was verified by producing melting curves and the efficiency was determined by producing dilution curves. The expression levels measured were then normalized on the expression levels of β-actin and cyclophillin B using the ΔΔCt method. […]
(In general: In qPCR the cycle at which signal appears reflects the starting amount.)

In the next test the test system is ABCA1. The test can be described thus: Expression of the ABCA1 transporter (real-time PCR) in endothelial cells treated with cyclodextrins. Type of test: cell-based, bovine. The conditions noted are these: 1 mM cyclodextrin, 24 hours, ABAEs, compared with control, FIG. 3. Here is the method:
as §1, §2, §3, §4

Take `OC[C@H]1O[C@@H]2O[C@H]3[C@H](O)[C@@H](O)[C@@H](O[C@H]4[C@H](O)[C@@H](O)[C@@H](O[C@H]5[C@H](O)[C@@H](O)[C@@H](O[C@H]6[C@H](O)[C@@H](O)[C@@H](O[C@H]7[C@H](O)[C@@H](O)[C@@H](O[C@H]8[C@H](O)[C@@H](O)[C@@H](O[C@H]1[C@H](O)[C@H]2O)O[C@@H]8CO)O[C@@H]7CO)O[C@@H]6CO)O[C@@H]5CO)O[C@@H]4CO)O[C@@H]3CO` [βCD, β-cyclodextrin]: the “Cholesterol efflux (radioactive cholesterol captured by the cyclodextrin)” value in test [1] is “rapid and considerable efflux”. In the test with ABCG1, the “ABCG1 receptor expression (mRNA)” value is recorded as “strongly decreasing”. In addition, the “ABCA1 receptor expression (mRNA)” value with ABCA1 is on record as “strongly decreasing”.
